Experimental data published in patent US20250387353A1 (SpringWorks Therapeutics, Inc., priority 2024, published 2025).

Experiments:
[1] = test system: NF1-associated plexiform neurofibromas (PN); test: Phase 2b trial in adult and pediatric patients with NF1-associated inoperable plexiform neurofibromas; response by BICR volumetric MRI per REiNS criteria; type: in vivo, human; settings: for DoR ≥12 months: Kaplan-Meier based approach, data cut-off September 2023
Procedure: Participants were screened (assessed for eligibility as described below). […] The median age was 34.5 years (range 18 to 69 years); 85% were white and 64% were female. […] The most commonly reported morbidities were pain (90%) and disfigurement or major deformity (52%).
The median age was 10 years (range 2 to 17 years); 66% were white and 54% were female. […] The most commonly reported morbidities were pain (70%) and disfigurement or major deformity (50%).
(§1) Study treatment was administered orally at a twice daily (BID) dose specified in the table below. Dosing was on a 28-day Cycle (4-week course) with a 3 week on/1 week off schedule. The treatment period will last for up to 24 Cycles followed by a 30-day Safety Follow-Up period.
A partial response was defined as PN decrease≥20% compared to baseline using centrally read MRI volumetric analysis.
The major efficacy outcome measure was confirmed objective response rate (ORR), defined as the percentage of patients with complete response (disappearance of the target PN) or confirmed partial response (≥20% reduction in PN volume confirmed at a subsequent tumor assessment within 2-6 months during the 24-cycle treatment phase). Responses were assessed by blinded independent central review (BICR) using volumetric magnetic resonance imaging (MRI) analysis per Response Evaluation in Neurofibromatosis and Schwannomatosis (REINS) criteria. A secondary efficacy objective was to determine the duration of response for patients who achieved a confirmed objective response.

[2] = Pharmacokinetic parameters and characteristics of mirdametinib (Table A); type: in vivo, human; settings: for Tmax [median (range)]: post dose
Procedure: as §1

[3] = Pediatric patients (2 to <18 years)

SMILES: O=C(NOC[C@H](O)CO)c1ccc(F)c(F)c1Nc1ccc(I)cc1F (single isomer, unassigned) [mirdametinib]
- DoR ≥12 months ([1]; Adult responders): 18 (75%) n (%)
- DoR ≥12 months ([1]; Pediatric responders): 22 (76%) n (%)
- Median time to onset of response ([1]; adult cohort, range 4.0 to 19.0 months): 7.8 months
- Median time to onset of response ([1]; pediatric cohort, range 4.1 to 18.8 months): 7.9 months
- Steady-state exposure AUClast [geometric mean (geometric % CV)] ([2]; Adult patients (≥18 years)): Adult patients (≥18 years): 431 (43%) ng · h/mL
- Steady-state exposure Cmax [geometric mean (geometric % CV)] ([2]; Adult patients (≥18 years)): Adult patients (≥18 years): 188 (52%) ng/mL
- Tmax [median (range)] ([2]; Capsule): Capsule: 1.08 (0.00-4.17) hours post dose
- Steady-state exposure AUClast [geometric mean (geometric % CV)] [2, 3]: Pediatric patients (2 to <18 years): 459 (46%) ng · h/mL
- Steady-state exposure Cmax [geometric mean (geometric % CV)] [2, 3]: Pediatric patients (2 to <18 years): 191 (62%) ng/mL
- Tmax [median (range)] ([2]; Tablet): Tablet: 0.83 (0.42-3.02) hours post dose
